Experimental data taken from PubChem BioAssay (NCI).
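Method: 48-hour compound exposure of cells in 96-well plates, five concentrations, linear interpolation of endpoints. TGI denotes the concentration required for complete inhibition of growth.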

Assays:
Assay in all cases: growth of human tumour cells (NCI), 48 h
[1] = system: UACC-62 melanoma
[2] = system: HT29 colon
[3] = system: OVCAR-4 ovarian
[4] = system: OVCAR-3 ovarian
[5] = system: UACC-257 melanoma
[6] = system: NCI/ADR-RES ovarian
[7] = system: SR leukemia
[8] = system: HS 578T breast
[9] = system: HOP-62 NSCLC
[10] = system: TK-10 renal
[11] = system: SK-OV-3 ovarian
[12] = system: IGROV1 ovarian
[13] = system: HCT-15 colon
[14] = system: SF-295 CNS
[15] = system: SK-MEL-2 melanoma
[16] = system: 786-0 renal
[17] = system: OVCAR-5 ovarian
[18] = system: HOP-92 NSCLC
[19] = system: MOLT-4 leukemia
[20] = system: MCF7 breast
[21] = system: OVCAR-8 ovarian
[22] = system: DU-145 prostate
[23] = system: MALME-3M melanoma
[24] = system: NCI-H226 lung
[25] = system: SF-539 CNS
[26] = system: CAKI-1 renal
[27] = system: SNB-75 CNS
[28] = system: HCC-2998 colon
[29] = system: ACHN renal
[30] = system: SNB-19 CNS
[31] = system: UO-31 renal
[32] = system: NCI-H23 lung
[33] = system: NCI-H522 lung
[34] = system: KM12 colon
[35] = system: RXF 393 renal
[36] = system: LOX IMVI melanoma
[37] = system: T-47D breast
[38] = system: A498 renal
[39] = system: BT-549 breast
[40] = system: SK-MEL-5 melanoma
[41] = system: COLO 205 colon
[42] = system: HCT-116 colon
[43] = system: SF-268 CNS
[44] = system: NCI-H460 lung
[45] = system: CCRF-CEM leukemia
[46] = system: RPMI-8226 leukemia
[47] = system: MDA-MB-435
[48] = system: MDA-MB-231 breast
[49] = system: A549 NSCLC
[50] = system: SW-620 colon
[51] = system: SN12C renal
[52] = system: PC-3 prostate
[53] = system: EKVX NSCLC
[54] = system: U251 CNS
[55] = system: HL-60(TB) leukemia
[56] = system: M14 melanoma
[57] = system: SK-MEL-28 melanoma
[58] = system: K-562 leukemia

CN(C)c1ccc(C(=N/N=C2\C(=O)Nc3ccccc32)c2ccc(N(C)C)cc2)cc1
TGI [1]: 33.5 µM
TGI [2]: 4.45 µM
TGI [3]: > 32.6 µM
TGI [4]: 3.63 µM
TGI [5]: > 83.8 µM
TGI [6]: 3.59 µM
TGI [7]: 26.8 µM
TGI [8]: > 21.9 µM
TGI [9]: 41.9 µM
TGI [10]: 28.2 µM
TGI [11]: 11.9 µM
TGI [12]: 9.07 µM
TGI [13]: 18.7 µM
TGI [14]: 4.13 µM
TGI [15]: 2720 nM
TGI [16]: 13.2 µM
TGI [17]: > 54 µM
TGI [18]: 51.2 µM
TGI [19]: 52.7 µM
TGI [20]: 2720 nM
TGI [21]: 22.4 µM
TGI [22]: 17.5 µM
TGI [23]: > 52.1 µM
TGI [24]: 43.3 µM
TGI [25]: 3.72 µM
TGI [26]: 19.7 µM
TGI [27]: 1210 nM
TGI [28]: 17.5 µM
TGI [29]: 40.8 µM
TGI [30]: > 100 µM
TGI [31]: 30.8 µM
TGI [32]: 31.1 µM
TGI [33]: 649 nM
TGI [34]: 33.1 µM
TGI [35]: 1230 nM
TGI [36]: 28.7 µM
TGI [37]: 35.5 µM
TGI [38]: 16.8 µM
TGI [39]: 38.6 µM
TGI [40]: 13.9 µM
TGI [41]: 3.34 µM
TGI [42]: 12.3 µM
TGI [43]: 29.2 µM
TGI [44]: 11.2 µM
TGI [45]: 13.2 µM
TGI [46]: 3.46 µM
TGI [47]: 56.7 nM
TGI [48]: 13.1 µM
TGI [49]: 43.2 µM
TGI [50]: > 100 µM
TGI [51]: 46.8 µM
TGI [52]: 40 µM
TGI [53]: > 54.4 µM
TGI [54]: 15.5 µM
TGI [55]: 7.4 µM
TGI [56]: 14.4 µM
TGI [57]: > 57.2 µM
TGI [58]: 39.6 µM
